In patent US7189526B2, “Apparatus for culture, process for preparing apparatus for culture, and culturing method” (Kyokuto Pharmaceutical Industrial Co., Ltd., priority 2002, dated 2007):

How the values were obtained:
[1] = test system: hybridoma KNA14.2; experiment: Inhibition against cell proliferation by aminopterin and its compensation by hypoxantin, amount of LDH of living cells; type: cell-based; settings: for level of compensation of inhibition against cell proliferation by aminopterin: four days' culture, 1×10^5 cells per ml; for compensation of inhibition against cell proliferation by aminopterin: six days' culture, low hypoxantin concentration [A(+), H(0.1+)]
Description: In a medium bottle, 0.2 g of Agarose (Takara, L 03 “TaKaRa”) was suspended in 20 ml of ultrapure water (concentration: 1 w/v %). Then, to dissolve the agarose the suspension was heated at 121° C. for 15 minutes in an autoclave (Tomy Seiko, SS-320). A bottle containing the thus-obtained agarose solution was immersed in a water incubator set at 41° C. and the agarose solution was cooled to be 41° C.
While, 10.4 g of a powdery GIBCO™ Medium RPMI 1640 (INVITROGEN CORPORATION, Cat. No. 31800-014) was dissolved in 500 ml of ultrapure water (concentration: about twice the final concentration). This solution was sterilized by making the solution pass through a nitrocellulose filter membrane having a pore size of 0.2 μm. Thus, 2×RPMI 1640 medium solution was prepared.
To 100 ml of the 2×RPMI 1640 medium solution, 100 ml of heat-inactivated bovine fetal serum was added under a aseptic condition. The thus-obtained heat-inactivated bovine fetal serum/2×RPMI 1640 medium solution was poured into four sterile bottles in an amount of 30 ml per bottle. The sterile bottles were immersed in a water incubator set at 41° C. and the medium solutions therein were heated to be 41° C.
The concentration of aminopterin became twice that in the HAT medium.
The concentrations of hypoxanthine and thymidine became twice those in the HAT medium.
To a medium solution containing aminopterin in another sterile bottle, the HT supplements were added in amounts such that their total volume is one-five hundredth ( 1/500) of the total volume of the medium solution containing aminopterin and the HT supplements. The concentrations of hypoxanthine and thymidine became one-fifth of those in a HAT medium. The sterile bottles were continuously heated at 41° C.
Then, at 41° C., 20 ml of the 1 w/v % agarose solution was mixed with 20 ml of medium solution No. 3 under an aseptic condition. By this, concentrations of the culture medium components of RPMI 1640 medium, heat-inactivated bovine fetal serum, aminopterin, and HT supplements, each of which had been prepared in an concentration of twice the final concentration, became one half of their concentrations in medium solution No. 3.
While, 10 ml of ultrapure water which had been sterilized by filtration was added to 10 ml of medium solution No. 3. […] This solution was used as a control solution.
After the mixed solution was poured into the wells, the culture plate was left cooling down for 60 minutes or more under room temperatures. Thus, the mixed solution was gelatinized. Hereafter, the gelatinized mixed solution will be designated as “an aminoprerin/HT-containing agarose gel.”
In each well the layer of the aminoprerin/HT-containing agarose gel was punched out in its center by using a biopsy punch having a diameter of 6 mm to form a hollow.
Into each of the thus-formed hollows, 0.17 ml of the culture medium solution not containing agarose (i.e., the control solution) was poured.

[2] = test system: hybridoma KNA14.2; settings: method of the present invention; three days; 5×10^5 cells per ml; [A(+), H(+)]
Description: The cell culture in Example 3 was repeated except that a hybridoma suspension containing hybridoma KNA14.2 in an amount of 5×10^5 per ml was used instead of the hybridoma suspension containing that hybridoma in an amount of 1×10^6 per ml.
Three days after the culture was started, states of cells that were cultured in a RPMI1640 medium solution containing aminopterin and serum ([A(+), H(−)]) and that were cultured in a RPMI1640 medium solution containing aminopterin, HT supplements, and serum ([A(+), H(+)]) were photographed under a microscope (magnification: ×200).
FIGS. 17 and 18 show cells that were cultured in the RPMI1640 medium solution containing aminopterin and serum ([A(+), H(−)]) and cells that were cultured in the RPMI1640 medium solution containing aminopterin, HT supplements, and serum ([A(+), H(+)]), respectively, by the method of the present invention (culture in a hollow that was formed in a gel).

[3] = Diffusion or elution of trypan blue from trypan blue-containing agarose gel to PBS in a hollow; type: physicochemical; settings: 0.5 w/v % agarose gel, 37° C., absorbance at 550 nm
Description: To 5 ml of distilled water, 0.05 g of agarose (Takara, L 03 “TaKaRa”) was suspended (concentration: 1 w/v %). Then, to dissolve the agarose the suspension was heated at 121° C. for 15 minutes in an autoclave (Tomy Seiko, SS-320). A bottle containing the thus-obtained agarose solution was immersed in a water incubator set at 41° C. and the agarose solution was cooled to be 41° C.
While, a 0.3% trypan blue-containing 2×PBS solution (phosphate buffered saline, 2×PBS) was prepared. This solution was sterilized by making the solution pass through a nitrocellulose filter membrane having a pore size of 0.2 μm. A bottle containing the sterilized 0.3% trypan blue-containing 2×PBS solution was immersed in a water incubator set at 41° C. and the solution was heated to be 41° C. […]
At appropriate time intervals, 0.02 ml of the PBS (it seemed that this contained trypan blue) in the hollow that had been made in the center of the gel layer in a well of the culture plate was taken out. […] The absorbance of the diluted PBS was determined at a wave length of 550 nm. The background was determined by using a diluted PBS (concentration: ⅕) containing no trypan blue. The value that was obtained by subtracting the absorbance of the background from that of the PBS that had been taken out from the PBS in the hollow and had diluted was specified as a true absorbance of the diluted PBS. […]

[4] = Diffusion or elution of IL-2 from IL-2-containing agarose gel to culture medium solution in a hollow (ELISA); type: physicochemical; settings: 37° C.
Description: Agarose (Takara, L 03 “TaKaRa”) was added to ultrapure water in a ratio of 1 gram per 100 ml of the water and was suspended (concentration: 1 w/v %). Then, to dissolve the agarose the suspension was heated at 121° C. for 15 minutes in an autoclave (Tomy Seiko, SS-320). A bottle containing the thus-obtained agarose solution was immersed in a water incubator set at 41° C. and the agarose solution was cooled to be 41° C.
While, a powdery GIBCO™ Medium RPMI 1640 (INVITROGEN CORPORATION, Cat. No. 31800-014) (glutamine was contained) was added to ultrapure water in a ratio of 10.4 gram per 500 ml of the water and was dissolved (concentration: about twice the final concentration). This solution was sterilized by making the solution pass through a nitrocellulose filter membrane having a pore size of 0.2 μm. Thus, 2×RPMI 1640 medium solution was prepared.
To 30 ml of this medium solution, 2-mercaptoethanol, penicillin, and streptomycin were added under an aseptic condition in such amounts as to be concentrations of 100 μM, 50 U/ml, and […], respectively. Then, to the thus-obtained solution, 6 ml of heat-inactivated bovine fetal serum was added. To the thus-obtained heat-inactivated bovine fetal serum/2×RPMI 1640 medium solution, interleukin 2 (IL-2, mouse, recombinant, SIGMA I-0523) was added in a ratio of 5 ng per ml of the solution. […]
At appropriate time intervals after the solution was poured into the hollows, from three hollows solutions were taken out in an amount of 0.02 ml per hollow. […] Then, by using mouse IL-2 Elisa Ready-SET-Go! (e-Bioscience, Cat. No. 88-70224-77), IL-2 concentrations of the samples were determined according to the protocol stated in the instruction.
The numerical values of the vertical axis were calculated as follows: After the solutions in the hollows were taken out, the IL-2-containing agarose gel was crushed and a solution was squeezed of the gel. For this solution an IL-2 concentration was determined in the same way as explained above. […]

With O=c1[nH]cnc2nc[nH]c12 [hypoxantin, hypoxanthine] the “compensation of inhibition against cell proliferation by aminopterin through the salvage pathway” value ([1]; [A(+), H(0.1+)] and [A(+), H(+)], 1×10^6 cells per ml, two, three and four days, hollows formed in gels) was “compensated”, the “level of compensation of inhibition against cell proliferation by aminopterin” value ([1]; conventional method (ninety-six-well culture plate), [A(+), H(0.1+)] and [A(+), H(+)]) was “about 40%” and the “compensation of inhibition against cell proliferation by aminopterin” value ([1]; conventional method) was “scarecely compensated”. The “level of compensation of inhibition against cell proliferation by aminopterin” value ([1]; method of the present invention (hollow formed in a gel), [A(+), H(0.1+)] and [A(+), H(+)]) was “about 100%”, the “compensation of inhibition against cell proliferation by aminopterin” value ([1]; method of the present invention) was “compensated with hypoxantin in the same level as that in the culture using the hypoxantin in its usual concentration” and the “compensation of inhibition against cell proliferation by aminopterin (cell number and states under microscope)” value [2] was “compensated”.

With Cc1cc(-c2ccc(/N=N/c3c(S(=O)(=O)O)cc4cc(S(=O)(=O)O)cc(N)c4c3O)c(C)c2)ccc1/N=N/c1c(S(=O)(=O)O)cc2cc(S(=O)(=O)O)cc(N)c2c1O [trypan blue] the “concentration of trypan blue in PBS in the hollow relative to the equilibrium value” ([3]; one hour after incubation started) was “above 50%” and the “concentration of trypan blue in PBS in the hollow relative to the equilibrium value” ([3]; three hours after incubation started) was “above 80%”.

B1: IL-2: interleukin 2 (IL-2, mouse, recombinant, SIGMA I-0523) (protein, UniProt P04351 21-169, looked up)
Interleukin-2: APTSSSTSSSTAEAQQQQQQQQQQQQHLEQLLMDLQELLSRMENYRNLKLPRMLTFKFYLPKQATELKDLQCLEDELGPLRHVLDLTQSKSFQLEDAENFISNIRVTVVKLKGSDNTFECQFDDESATVVDFLRRWIAFCQSIISTSPQ
In the case of B1, the “IL-2 concentration of the solution in the hollow relative to the equilibrium value” ([4]; forty-eight hours after incubation started) is reported as “about 70%”, the “IL-2 concentration of the solution in the hollow relative to the equilibrium value” ([4]; two hours after incubation started) is reported as “about 10%” and the “IL-2 concentration of the solution in the hollow relative to the equilibrium value” ([4]; within six hours) is reported as “at least 30%”.
